From ChEMBL document CHEMBL3885881, “DrugMatrix”

Organism: Rattus norvegicus
Type: toxicity, organism-based, Sprague-Dawley
Details: in vivo, ip, route intraperitoneal, vehicle 100 % SALINE; for ABSOLUTE EOSINOPHIL / ABSOLUTE LYMPHOCYTE / ABSOLUTE MONOCYTE / ABSOLUTE SEGMENTED NEUTROPHIL / BASOPHIL / EOSINOPHIL / ERYTHROCYTE COUNT / HEMATOCRIT / HEMOGLOBIN / LEUKOCYTE COUNT / LYMPHOCYTE / MEAN CORPUSCULAR HEMOGLOBIN / MEAN CORPUSCULAR HEMOGLOBIN CONCENTRATION / MEAN CORPUSCULAR VOLUME / MONOCYTE / NEUTROPHIL / NUCLEATED RED BLOOD CELLS / PLATELET COUNT: tissue Blood; for ALANINE AMINOTRANSFERASE / ALBUMIN / ALKALINE PHOSPHATASE / ASPARTATE AMINOTRANSFERASE / BLOOD UREA NITROGEN / CARBON DIOXIDE / CHLORIDE / CHOLESTEROL / CREATINE PHOSPHOKINASE / CREATININE / GLUCOSE / LACTATE DEHYDROGENASE / LIPASE / PHOSPHORUS / POTASSIUM / SODIUM / TOTAL BILIRUBIN / TOTAL PROTEIN / URIC ACID: tissue Plasma
[1] = 16 mg/kg, 24 h, dose level Low, time 1 day
[2] = 25 mg/kg, 6 h, dose level M1, time 0.25 day
[3] = 25 mg/kg, 24 h, dose level M1, time 1 day

Description: DrugMatrix - Regimen: Single

C=CCO [ALLYL ALCOHOL]
ABSOLUTE EOSINOPHIL [1]: 29.33 CELLS/uL | ABSOLUTE LYMPHOCYTE [1]: 15204.83 CELLS/uL | ABSOLUTE MONOCYTE [1]: 174.67 CELLS/uL | ABSOLUTE SEGMENTED NEUTROPHIL [1]: 841.17 CELLS/uL | BASOPHIL [1]: 0% | EOSINOPHIL [1]: 0.17% | ERYTHROCYTE COUNT [1]: 5.13 x10E6/uL | HEMATOCRIT [1]: 33.13% | HEMOGLOBIN [1]: 12.85 G/DL | LEUKOCYTE COUNT [1]: 16.25 x10E3/uL | LYMPHOCYTE [1]: 93.83% | MEAN CORPUSCULAR HEMOGLOBIN [1]: 25.02 pg | MEAN CORPUSCULAR HEMOGLOBIN CONCENTRATION [1]: 38.82 G/DL | MEAN CORPUSCULAR VOLUME [1]: 64.5 fL | MONOCYTE [1]: 1% | NEUTROPHIL [1]: 5% | NUCLEATED RED BLOOD CELLS [1]: 0.33 /100WBC | PLATELET COUNT [1]: 1056.83 x10E3/uL | ALANINE AMINOTRANSFERASE [1]: 50.67 u/L | ALBUMIN [1]: 4.33 G/DL | ALKALINE PHOSPHATASE [1]: 273.5 u/L | ASPARTATE AMINOTRANSFERASE [1]: 75.83 u/L | BLOOD UREA NITROGEN [1]: 11.17 mg/dL | CARBON DIOXIDE [1]: 27.5 mmol/L | CHLORIDE [1]: 101.83 MEQ/L | CHOLESTEROL [1]: 67 mg/dL | CREATINE PHOSPHOKINASE [1]: 299.83 u/L | CREATININE [1]: 0.18 mg/dL | GLUCOSE [1]: 166.33 mg/dL | LACTATE DEHYDROGENASE [1]: 243.17 u/L | LIPASE [1]: 9.67 u/L | PHOSPHORUS [1]: 10.5 mg/dL | POTASSIUM [1]: 5.58 MEQ/L | SODIUM [1]: 147.05 MEQ/L | TOTAL BILIRUBIN [1]: 0.15 mg/dL | TOTAL PROTEIN [1]: 5.87 G/DL | URIC ACID [1]: 1.25 mg/dL | ABSOLUTE EOSINOPHIL [2]: 0 CELLS/uL | ABSOLUTE LYMPHOCYTE [2]: 12514.83 CELLS/uL | ABSOLUTE MONOCYTE [2]: 196.67 CELLS/uL | ABSOLUTE SEGMENTED NEUTROPHIL [2]: 2271.83 CELLS/uL | BASOPHIL [2]: 0% | EOSINOPHIL [2]: 0% | ERYTHROCYTE COUNT [2]: 5.42 x10E6/uL | HEMATOCRIT [2]: 35.1% | HEMOGLOBIN [2]: 13.58 G/DL | LEUKOCYTE COUNT [2]: 14.98 x10E3/uL | LYMPHOCYTE [2]: 83.83% | MEAN CORPUSCULAR HEMOGLOBIN [2]: 25.07 pg | MEAN CORPUSCULAR HEMOGLOBIN CONCENTRATION [2]: 38.7 G/DL | MEAN CORPUSCULAR VOLUME [2]: 64.73 fL | MONOCYTE [2]: 1.33% | NEUTROPHIL [2]: 14.83% | NUCLEATED RED BLOOD CELLS [2]: 0 /100WBC | PLATELET COUNT [2]: 1079 x10E3/uL | ALANINE AMINOTRANSFERASE [2]: 87.5 u/L | ALBUMIN [2]: 4.43 G/DL | ALKALINE PHOSPHATASE [2]: 238.5 u/L | ASPARTATE AMINOTRANSFERASE [2]: 133.17 u/L | BLOOD UREA NITROGEN [2]: 10.33 mg/dL | CARBON DIOXIDE [2]: 27.67 mmol/L | CHLORIDE [2]: 101.5 MEQ/L | CHOLESTEROL [2]: 58.83 mg/dL | CREATINE PHOSPHOKINASE [2]: 180 u/L | CREATININE [2]: 0.12 mg/dL | GLUCOSE [2]: 158.17 mg/dL | LACTATE DEHYDROGENASE [2]: 175.17 u/L | LIPASE [2]: 10.67 u/L | PHOSPHORUS [2]: 11.65 mg/dL | POTASSIUM [2]: 5.53 MEQ/L | SODIUM [2]: 144.52 MEQ/L | TOTAL BILIRUBIN [2]: 0.12 mg/dL | TOTAL PROTEIN [2]: 5.95 G/DL | URIC ACID [2]: 1.33 mg/dL | ABSOLUTE EOSINOPHIL [3]: 41.33 CELLS/uL | ABSOLUTE LYMPHOCYTE [3]: 12363.17 CELLS/uL | ABSOLUTE MONOCYTE [3]: 291.83 CELLS/uL | ABSOLUTE SEGMENTED NEUTROPHIL [3]: 987 CELLS/uL | BASOPHIL [3]: 0% | EOSINOPHIL [3]: 0.33% | ERYTHROCYTE COUNT [3]: 5.25 x10E6/uL | HEMATOCRIT [3]: 35.35% | HEMOGLOBIN [3]: 13.55 G/DL | LEUKOCYTE COUNT [3]: 13.68 x10E3/uL | LYMPHOCYTE [3]: 90.33% | MEAN CORPUSCULAR HEMOGLOBIN [3]: 25.85 pg | MEAN CORPUSCULAR HEMOGLOBIN CONCENTRATION [3]: 38.38 G/DL | MEAN CORPUSCULAR VOLUME [3]: 67.32 fL | MONOCYTE [3]: 2.17% | NEUTROPHIL [3]: 7.17% | NUCLEATED RED BLOOD CELLS [3]: 0.33 /100WBC | PLATELET COUNT [3]: 960.33 x10E3/uL | ALANINE AMINOTRANSFERASE [3]: 143 u/L | ALBUMIN [3]: 4.27 G/DL | ALKALINE PHOSPHATASE [3]: 289.67 u/L | ASPARTATE AMINOTRANSFERASE [3]: 211.17 u/L | BLOOD UREA NITROGEN [3]: 12.5 mg/dL | CARBON DIOXIDE [3]: 28.33 mmol/L | CHLORIDE [3]: 100.67 MEQ/L | CHOLESTEROL [3]: 75.17 mg/dL | CREATINE PHOSPHOKINASE [3]: 317.5 u/L | CREATININE [3]: 0.22 mg/dL | GLUCOSE [3]: 148.33 mg/dL | LACTATE DEHYDROGENASE [3]: 194.67 u/L | LIPASE [3]: 9.33 u/L | PHOSPHORUS [3]: 11.4 mg/dL | POTASSIUM [3]: 6.21 MEQ/L | SODIUM [3]: 147.37 MEQ/L | TOTAL BILIRUBIN [3]: 0.17 mg/dL | TOTAL PROTEIN [3]: 5.9 G/DL | URIC ACID [3]: 1.15 mg/dL
